Results reported in patent publication US10918713B2, “Epitopes from allergen proteins and methods and uses for immune response modulation” (LA JOLLA INSTITUTE FOR ALLERGY AND IMMUNOLOGY, priority 2012, dated 2021).
Where “and” joins values, the source holds several entries; their conditions need not be identical. Equal values may be shown once.

Assays:
[1] = tested on: PBMC from allergic donors; assay: IL-5 ELISPOT with extract-stimulated short-term lines; assay type: cell-based, human; details: positive donor/peptide response
Experimental: (§1) Spots were counted by computer-assisted image analysis (Zeiss, KS-ELISPOT reader, Munich, Germany).
(§2) Each assay was performed in triplicate. The level of statistical significance was determined with a Student's t-test using the mean of triplicate values of the response against relevant pools or individual peptides versus the response against the DMSO control.

[2] = tested on: PBMC from allergic donors; assay: Dual ELISPOT, total IL-5 and IFN-γ response (SFC); assay type: cell-based, human; details: sum of IFNg and IL-5
Experimental: as §1, §2

## 3324.1640 (VTAFGFDLVRGTKTL)
[1]; each table line is one donor
  Response (SFC/10^6) IL-5: 73 SFC/10^6
[2]; each table line is one donor
  Response (SFC/10^6) Total: 73 SFC/10^6

## CC[C@H](C)[C@H](NC(=O)[C@H](Cc1ccc(O)cc1)NC(=O)[C@H](CC(C)C)NC(=O)[C@@H]1CCCN1C(=O)[C@H](CCSC)NC(=O)[C@H](CC(N)=O)NC(=O)[C@H](CC(C)C)NC(=O)[C@H](CCCCN)NC(=O)[C@@H](NC(=O)[C@H](CC(N)=O)NC(=O)[C@H](CC(C)C)NC(=O)[C@@H](N)CC(N)=O)[C@@H](C)CC)C(=O)N[C@@H](C)C(=O)NCC(=O)N[C@@H](CC(N)=O)C(=O)O [3324.0523]
[1]; one donor per table line
  Response (SFC/10^6) IL-5: 1708 SFC/10^6
[2]; one donor per table line
  Response (SFC/10^6) Total: 1708 SFC/10^6

## CC[C@H](C)[C@H](NC(=O)[C@H](CC(N)=O)NC(=O)[C@H](CCSC)NC(=O)[C@@H](N)CC(N)=O)C(=O)N[C@@H](CCCCN)C(=O)N[C@@H](CC(C)C)C(=O)N[C@@H](CCCCN)C(=O)N[C@@H](CCSC)C(=O)N1CCC[C@H]1C(=O)N[C@@H](CC(C)C)C(=O)N[C@@H](Cc1ccc(O)cc1)C(=O)N[C@H](C(=O)N[C@@H](C)C(=O)NCC(=O)N[C@@H](Cc1c[nH]cn1)C(=O)O)C(C)C [3324.0624]
[1]; one donor per table line
  Response (SFC/10^6) IL-5: 3147 SFC/10^6
[2]; one donor per table line
  Response (SFC/10^6) Total: 3147 SFC/10^6

## CC[C@H](C)[C@H](NC(=O)[C@H](CO)NC(=O)[C@H](CC(C)C)NC(=O)[C@H](C)NC(=O)[C@H](CC(C)C)NC(=O)[C@H](CC(N)=O)NC(=O)[C@H](CCCCN)NC(=O)[C@H](CCC(=O)O)NC(=O)[C@H](CC(=O)O)NC(=O)[C@H](CO)NC(=O)CN)C(=O)N[C@@H](CCCCN)C(=O)N[C@@H](Cc1ccc(O)cc1)C(=O)N[C@@H](CC(N)=O)C(=O)N[C@@H](CCCCN)C(=O)O [3324.0657]
[1]; one donor per table line
  Response (SFC/10^6) IL-5: 1000 SFC/10^6 and 693 SFC/10^6
[2]; one donor per table line
  Response (SFC/10^6) Total: 1000 SFC/10^6 and 693 SFC/10^6

## CC[C@H](C)[C@H](NC(=O)[C@H](CO)NC(=O)[C@H](CC(C)C)NC(=O)[C@H](C)NC(=O)[C@H](CC(C)C)NC(=O)[C@@H](N)CC(N)=O)C(=O)N[C@@H](CCCCN)C(=O)N[C@@H](Cc1ccc(O)cc1)C(=O)N[C@@H](CC(N)=O)C(=O)N[C@@H](CCCCN)C(=O)N[C@@H](CCC(=O)O)C(=O)NCC(=O)N[C@@H](CC(=O)O)C(=O)N[C@@H](CO)C(=O)N[C@@H](CCSC)C(=O)O [3324.0658]
[1]; one donor per table line
  Response (SFC/10^6) IL-5: 917 SFC/10^6 and 853 SFC/10^6
[2]; one donor per table line
  Response (SFC/10^6) Total: 917 SFC/10^6 and 853 SFC/10^6

## CC[C@H](C)[C@H](NC(=O)[C@H](Cc1c[nH]cn1)NC(=O)[C@H](Cc1ccc(O)cc1)NC(=O)[C@H](C)NC(=O)[C@@H](NC(=O)[C@H](Cc1ccccc1)NC(=O)[C@H](C)NC(=O)[C@H](CC(=O)O)NC(=O)[C@@H](N)Cc1ccccc1)C(C)C)C(=O)NCC(=O)N[C@@H](C)C(=O)N[C@@H](CCCNC(=N)N)C(=O)N[C@H](C(=O)N[C@H](C(=O)N[C@@H](CO)C(=O)O)C(C)C)[C@@H](C)CC [3324.0971]
[1]; one donor per table line
  Response (SFC/10^6) IL-5: 187 SFC/10^6
[2]; one donor per table line
  Response (SFC/10^6) Total: 187 SFC/10^6

## CC[C@H](C)[C@H](NC(=O)[C@H](C)NC(=O)[C@@H](NC(=O)[C@H](Cc1ccccc1)NC(=O)[C@H](C)NC(=O)[C@H](CCCNC(=N)N)NC(=O)[C@H](CC(N)=O)NC(=O)CNC(=O)[C@H](CCCNC(=N)N)NC(=O)[C@@H](N)CO)[C@@H](C)CC)C(=O)N[C@@H](CC(N)=O)C(=O)N[C@@H](CC(C)C)C(=O)N[C@@H](CCC(N)=O)C(=O)N[C@@H](CCCCN)C(=O)N[C@@H](CC(N)=O)C(=O)O [3324.0974]
[1]; one donor per table line
  Response (SFC/10^6) IL-5: 940 SFC/10^6
[2]; one donor per table line
  Response (SFC/10^6) Total: 940 SFC/10^6

## CC[C@H](C)[C@H](NC(=O)[C@H](Cc1c[nH]cn1)NC(=O)[C@H](Cc1ccc(O)cc1)NC(=O)[C@H](C)NC(=O)[C@@H](NC(=O)[C@H](Cc1ccccc1)NC(=O)[C@H](C)NC(=O)[C@H](CC(=O)O)NC(=O)[C@H](Cc1ccccc1)NC(=O)[C@H](CCC(=O)O)NC(=O)[C@H](CC(=O)O)NC(=O)[C@H](Cc1c[nH]cn1)NC(=O)CNC(=O)[C@@H](NC(=O)[C@@H](N)Cc1ccc(O)cc1)C(C)C)C(C)C)C(=O)O [3324.0975]
[1]; one donor per table line
  Response (SFC/10^6) IL-5: 973 SFC/10^6
[2]; one donor per table line
  Response (SFC/10^6) Total: 973 SFC/10^6

## CC[C@H](C)[C@H](N)C(=O)N[C@@H](CCC(=O)O)C(=O)N[C@@H](Cc1ccccc1)C(=O)N[C@@H](CCCNC(=N)N)C(=O)N[C@@H](Cc1ccccc1)C(=O)N[C@@H](Cc1ccc(O)cc1)C(=O)N[C@@H](CCCCN)C(=O)N[C@@H](CCC(=O)O)C(=O)N[C@H](C(=O)N[C@H](C(=O)N[C@@H](CC(N)=O)C(=O)N[C@H](C(=O)N[C@@H](Cc1ccccc1)C(=O)N[C@@H](CCCNC(=N)N)C(=O)NCC(=O)O)C(C)C)[C@@H](C)O)[C@@H](C)CC [3324.0976]
[1]; one donor per table line
  Response (SFC/10^6) IL-5: 153 SFC/10^6 and 610 SFC/10^6
[2]; one donor per table line
  Response (SFC/10^6) Total: 153 SFC/10^6 and 610 SFC/10^6

## CSCC[C@H](NC(=O)[C@H](Cc1ccccc1)NC(=O)[C@H](C)N)C(=O)N[C@@H](CC(C)C)C(=O)N[C@@H](C)C(=O)N[C@@H](Cc1c[nH]c2ccccc12)C(=O)N[C@@H](CC(N)=O)C(=O)N[C@@H](Cc1ccc(O)cc1)C(=O)NCC(=O)N[C@H](C(=O)N1CCC[C@H]1C(=O)N[C@@H](CCCNC(=N)N)C(=O)N[C@H](C(=O)N[C@@H](CCSC)C(=O)N[C@@H](CO)C(=O)O)C(C)C)C(C)C [3324.0977]
[1]; one donor per table line
  Response (SFC/10^6) IL-5: 1413 SFC/10^6 and 157 SFC/10^6
[2]; one donor per table line
  Response (SFC/10^6) Total: 1413 SFC/10^6 and 157 SFC/10^6

## CC[C@H](C)[C@H](NC(=O)[C@H](C)NC(=O)[C@@H](NC(=O)[C@H](Cc1ccccc1)NC(=O)[C@H](C)NC(=O)[C@H](CCCNC(=N)N)NC(=O)[C@H](CC(N)=O)NC(=O)CNC(=O)[C@H](CCCNC(=N)N)NC(=O)[C@H](CO)NC(=O)[C@H](Cc1ccccc1)NC(=O)[C@H](C)NC(=O)[C@@H](NC(=O)[C@H](CCC(N)=O)NC(=O)[C@@H](N)Cc1ccc(O)cc1)[C@@H](C)CC)[C@@H](C)CC)C(=O)O [3324.0980]
[1]; one donor per table line
  Response (SFC/10^6) IL-5: 177 SFC/10^6 and 380 SFC/10^6
[2]; one donor per table line
  Response (SFC/10^6) Total: 177 SFC/10^6 and 380 SFC/10^6

## CC[C@H](C)[C@H](N)C(=O)N[C@H](C(=O)N[C@@H](CC(C)C)C(=O)N[C@@H](CC(N)=O)C(=O)N[C@@H](Cc1c[nH]cn1)C(=O)N[C@@H](CCSC)C(=O)N[C@H](C(=O)NCC(=O)N[C@@H](C)C(=O)N[C@@H](CCC(N)=O)C(=O)N[C@@H](CO)C(=O)NCC(=O)N[C@@H](CCCCN)C(=O)NCC(=O)N[C@H](C(=O)O)[C@@H](C)O)[C@@H](C)O)C(C)C [3324.0987]
[1]; one donor per table line
  Response (SFC/10^6) IL-5: 507 SFC/10^6
[2]; one donor per table line
  Response (SFC/10^6) Total: 507 SFC/10^6

## CC[C@H](C)[C@H](N)C(=O)N[C@@H](CCCCN)C(=O)N[C@@H](CO)C(=O)N[C@@H](CC(=O)O)C(=O)N[C@@H](CCCCN)C(=O)N1CCC[C@H]1C(=O)N[C@@H](CC(C)C)C(=O)N[C@@H](CCCCN)C(=O)NCC(=O)N1CCC[C@H]1C(=O)N[C@@H](Cc1ccccc1)C(=O)N[C@@H](CC(N)=O)C(=O)N[C@@H](Cc1ccccc1)C(=O)N[C@@H](CCCNC(=N)N)C(=O)N[C@@H](Cc1ccccc1)C(=O)O [3324.1140]
[1]; each table line is one donor
  Response (SFC/10^6) IL-5: 317 SFC/10^6
[2]; each table line is one donor
  Response (SFC/10^6) Total: 317 SFC/10^6

## CC[C@H](C)[C@H](NC(=O)[C@H](Cc1ccccc1)NC(=O)[C@H](CCCCN)NC(=O)[C@H](Cc1ccc(O)cc1)NC(=O)[C@H](CO)NC(=O)[C@@H](N)CC(=O)O)C(=O)N1CCC[C@H]1C(=O)N[C@H](C(=O)N[C@@H](CC(C)C)C(=O)N[C@H](C(=O)N[C@@H](C)C(=O)N[C@@H](C)C(=O)N[C@H](C(=O)N[C@@H](CCCCN)C(=O)N[C@@H](CCC(N)=O)C(=O)O)C(C)C)C(C)C)[C@@H](C)O [3324.1165]
[1]; each table line is one donor
  Response (SFC/10^6) IL-5: 382 SFC/10^6 and 78 SFC/10^6
[2]; each table line is one donor
  Response (SFC/10^6) Total: 382 SFC/10^6 and 78 SFC/10^6
